Data as given in patent publication US20250197417A1, “CRYSTALLINE INTERMEDIATES” (QBIOTICS PTY LTD, priority 2021, published 2025).

Columns and labels:
[1] = Storage stability of crystalline forms of compound of formula (Ia); format: physicochemical
Protocol: Form A of the crystalline anhydrous Compound of formula (Ia) was stable for at least 9 months in industrial packaging (Type III amber glass vial (10 mL) closed by a black plastic screw cap with polyethylene stoppers) at 25° C. and 60% relative humidity and as a free crystalline powder at 80° C. and 60% humidity for 24 hours.
The anhydrous crystalline Form B was characterized by an X-ray powder diffraction (X-RPD) pattern obtained using the copper wavelengths λ1 and λ2 of 1.54056 Å and 1.54439 Å showing a crystalline structure and comprising distinctive reflections, expressed as 20 degrees values, at 4.9, 8.5, 9.8, 11.4, 14.6, 16.5, 17.5, 19.5, 21.4, 27.7, 28.7±0.2 degrees 2θ.

[2] = Crystallization study, preliminary solvent screening (solubility comments); format: physicochemical
Description: An aliquot of purified compound of formula (Ia) obtained from Example 4 (0.83 L containing about 10 g of compound) was used in the crystallization study.

CC1=CC2[C@]3(O)C(C4C(C)(C)[C@]4(O)[C@H](O)[C@H]3C)[C@@H]3O[C@@]34COC(C)(C)O[C@H]4[C@]2(O)C1=O (stereo partly shown) [Form B]
stable unchanged (further storage time) ([1]; 25° C. at 80% relative humidity): ≥ 7 days

CC1=CC2[C@]3(O)C(C4C(C)(C)[C@]4(O)[C@H](O)[C@H]3C)[C@@H]3O[C@@]34COC(C)(C)O[C@H]4[C@]2(O)C1=O (stereo partly shown) [Form A]
stable (storage time) ([1]; free crystalline powder, 80° C. and 60% humidity): 24 h | stable (storage time) ([1]; industrial packaging (Type III amber glass vial, 10 mL, screw cap with polyethylene stoppers), 25° C. and 60% relative humidity): at least 9 months | solid form change upon storage ([1]; storage at 5° C. for 5 days): transformed into a dihydrate form | solid form change upon storage ([1]; storage at 25° C. at 80% relative humidity for 68 hours): a new stable anhydrous crystalline form was formed, Form B | solid form change upon storage ([1]; storage at 40° C. at 80% relative humidity for 7 days): a new stable anhydrous crystalline form was formed, Form B

CC1=CC2[C@]3(O)C(C4C(C)(C)[C@]4(O)[C@H](O)[C@H]3C)[C@@H]3O[C@@]34COC(C)(C)O[C@H]4[C@]2(O)C1=O (stereo partly shown) [dihydrate form]
solid form change upon storage ([1]; storage at 25° C. and 80% relative humidity for 5 days): transformed back to Form A

CC1=CC2[C@]3(O)C(C4C(C)(C)[C@]4(O)[C@H](O)[C@H]3C)[C@@H]3O[C@@]34COC(C)(C)O[C@H]4[C@]2(O)C1=O (stereo partly shown) [Compound of formula (Ia)]
Comment (solubility) ([2]; 2-Propanol, 5 V → 10 V, 20-25° C. → reflux, remained dissolved): Remained | Comment (solubility) ([2]; Acetone, 5 V → 10 V, 20-25° C. → reflux, soluble only with 10 V of acetone at reflux): Soluble only | Comment (solubility) ([2]; Acetonitrile, 5 V → 10 V, 20-25° C. → reflux, dissolution observed at reflux): Dissolution | Comment (solubility) ([2]; Dimethylformamide, 5 V → 10 V, 20-25° C., soluble only with 10 V of DMF): Soluble only | Comment (solubility) ([2]; Ethyl acetate, 5 V → 10 V, 20-25° C., remained dissolved): Remained | Comment (solubility) ([2]; Methyl tert-butyl ether, 5 V → 20 V, 20-25° C. → reflux): Not soluble
